Data published in patent publication EP3345917A1, “ANTIPROTOZOAL COMPOUNDS” (Bacoba AG, priority 2017, dated 2018).
Where two headings read alike, the source gives them in different places. Non-standard residues stand in square brackets, D forms with d. Residues, ends and D or L forms follow the SMILES beside them. *: point of attachment. CH3O(CH2CH2O)11CH2CH2CO = COCCOCCOCCOCCOCCOCCOCCOCCOCCOCCOCCOCCC(=O)*; Hexenoyl(2E,4S-Me) = CC[C@H](C)/C=C/C(=O)*; Leu(3R-OH) = CC(C)[C@@H](O)[C@H](N)C(=O)O; NH((S)CH(Me)CH2NMe2) = C[C@@H](CN(C)C)N*; NH(1-CH2NMe2-cBu) = CN(C)CC1(N*)CCC1; Gly(octyl) = CCCCCCCC[C@H](N)C(=O)O; Oxazole4CO(2-Me) = Cc1nc(C(=O)*)co1; X3 = O=C(c1coc(-c2ccccc2)n1)*; Morpholide = C1CN(*)CCO1; X24 = CN1CC2(C1)CN(*)C2; X25 = CN(C)CC1(N*)CCCC1; X23 = CN1CCC12CN(*)C2; Aib = CC(C)(N)C(=O)O; βAla = NCCC(=O)O

Columns and labels:
[1] = system: Trypanosoma brucei rhodesiense (STIB 900 strain); experiment: Alamar Blue assay against Trypanosoma brucei rhodesiense grown in axenic medium; type: cell-based
Procedure: (§1) Tests were done in triplicate.
Trypanosoma brucei rhodesiense (STIB 900) were grown in axenic medium as described by Baltz et al. (1985) The samples were tested using the Alamar Blue assay protocol (Baltz T et al. EMBO J 1985; 4:1273-1277) to determine the 50% inhibitory concentration (IC50). […] Melarsoprol (Arsobal®, Sanofi-Aventis, Switzerland) was used as a reference drug (IC50= 0.03 ± 0.01 µM). Its purity was over 95 %, as was certified by the supplier. The IC50 values were calculated by using Softmax Pro software (Molecular Devices Cooperation, Sunnyvale, CA).

[2] = system: Trypanosoma cruzi trypomastigote forms (Tulahuen strain); experiment: Intracellular Trypanosoma cruzi assay in L6-cells, beta-galactosidase/CPRG readout; type: cell-based
Procedure: as §1
Trypanosoma cruzi trypomastigote forms (Tulahuen strain C2C4 containing β-galactosidase (Lac Z) gene) were cultured as described by Buckner et al. (Buckner FS et al. Antimicrob Agents Ch1996; 40: 2592-2597) in rat myoblast cells (L6-cells). […] After incubation, the substrate chlorophenyl red β-D-galactopyranoside agent CPRG/Nonident was added to all wells and a color change was developed within 2 to 6 h. The plates were read photometrically at 540 nm (Molecular Devices). Data were evaluated and IC50 values calculated using Softmax Pro software (Molecular Devices).

[3] = system: Axenically grown Leishmania donovani amastigotes (strain MHOM/ET/67/L82); experiment: Axenic Leishmania donovani amastigote resazurin assay; type: cell-based
Procedure: as §1
Axenically grown Leishmania donovani amastigotes (strain MHOM/ET/67/L82) were grown and tests were done as previously described using the resazurin assay (Räz B et al. Acta Tropica 1997, 68:139-147). The plates were developed for 2-4 hours and read on a Spectramax Gemini XS micro plate fluorometer (Molecular Devices Cooperation) using an excitation wavelength of 536 nm and emission wavelength of 588 nm. Fluorescence development was measured and expressed as percentage of the negative control. […] Data were transferred to the graphic programme Softmax Pro (Molecular Devices), with which IC50 values were calculated.

Plasmodium falciparum = experiment: 3H-hypoxanthine incorporation assay against Plasmodium falciparum; type: cell-based; conditions: In vitro inhibition, read-out: P.falc NF5
Procedure: as §1
IC50 values were calculated by linear interpolation.

[4] = Cytotoxicity assay on L6-cells (Alamar Blue); conditions: rat, Cytotox L6, Cytotoxicity against rat myoblast cells (L6)
Procedure: Tests were done in triplicate. IC50 values against the parasites as well as cytotoxic effects against rat myoblast (L6-cells) were determined by serial dilution and repeated twice.
After 68 h of incubation under humidified 5% CO2 atmosphere, 10 µl of the Alamar blue marker was added to all wells. The plates were incubated for an additional 2 h. […] The IC50S were calculated by Softmax Pro software (Molecular Devices Cooperation, Sunnyvale, CA). […] Cytotoxicity was measured against rat myoblast cells (Cytotox L6).

[5] = In vitro inhibition, read-out: T.b.rhod.
[6] = In vitro inhibition, read-out: T.cruzi.
[7] = In vitro inhibition, read-out: L.don. ax

Row | SMILES | IC50 [1, 5] | IC50 [2, 6] | IC50 [3, 7] | IC50 at 70 h [4] | other results
1 | CCCCCCCC[C@H](NC(=O)[C@@H]1CCCN1C(=O)/C=C/[C@@H](C)CC)C(=O)N[C@@H](CO)C(=O)NC(C)(C)C(=O)N[C@@H](CC(C)C)C(=O)N[C@@H](CC(C)C)C(=O)NC(C)(C)C(=O)NC(C)(C)C(=O)NCCC(=O)N[C@@H](C)CN(C)C (stereo in doubt) [Compound 5521, (2S)-N-[(1S)-1-[(1-{[(1S)-1-{[(1S)-1-{[1-({1-[(2-{[(2S)-1-(dimethylamino)propan-2-yl]carbamoyl}ethyl)carbamoyl]-1-methylethyl}carbamoyl)-1-methylethyl]carbamoyl}-3-methylbutyl]carbamoyl}-3-methylbutyl]carbamoyl}-1-methylethyl)carbamoyl]-2-hydroxyethyl]-2-{[(2S)-1-[(2E,4S)-4-methylhex-2-enoyl]pyrrolidin-2-yl]formamido}decanamide] | 1.3 nM | 807 nM | 3.6 nM | 1650 nM | IC50 (Plasmodium falciparum): 8.5 nM
2 | O=C(Cn1ccnc1[N+](=O)[O-])NCc1ccccc1 [Benznidazol] | – | – | – | – | IC50 ([2]; TULAHUEN, In vitro inhibition, intracellular Trypanosoma cruzi, read-out: T.cruzi.): 2080 nM
3 | O=C(Cn1ccnc1[N+](=O)[O-])NCc1ccccc1 [Benznidazole, benznidazole] | – | – | – | – | IC50 ([2]; Trypanosoma cruzi, standard drug, T. cruzi Tulahuen C2C4 in L6-cells, read-out: IC50): 0.48 µg/mL
4 | CCCCCCCC[C@H](NC(=O)[C@@H]1CCCN1C(=O)/C=C/[C@@H](C)CC)C(=O)N[C@H](C(=O)NC(C)(C)C(=O)N[C@@H](CC(C)C)C(=O)N[C@@H](CC(C)C)C(=O)NC(C)(C)C(=O)NC(C)(C)C(=O)NCCC(=O)N[C@@H](C)CN(C)C)[C@@H](C)O [Compound 5520] ({Hexenoyl(2E,4S-Me)}-P[Gly(octyl)]T[Aib]LL[Aib][Aib][βAla]-{NH((S)CH(Me)CH2NMe2)}) | – | – | – | 930 nM | –
5 | CCCCCCCC[C@H](NC(=O)[C@@H]1CCCN1C(=O)/C=C/[C@@H](C)CC)C(=O)N[C@H](C(=O)NC(C)(C)C(=O)N[C@@H](CC(C)C)C(=O)N[C@@H](CC(C)C)C(=O)NC(C)(C)C(=O)NC(C)(C)C(=O)NCCC(=O)N1CCOCC1)[C@H](O)C(C)C [Compound 5572] ({Hexenoyl(2E,4S-Me)}-P[Gly(octyl)][Leu(3R-OH)][Aib]LL[Aib][Aib][βAla]-Morpholide) | – | – | – | 1420 nM | –
6 | CCCCCCCC[C@H](NC(=O)[C@@H]1CCCN1C(=O)c1coc(-c2ccccc2)n1)C(=O)N[C@@H](CC(C)C)C(=O)NC(C)(C)C(=O)N[C@@H](CC(C)C)C(=O)N[C@@H](CC(C)C)C(=O)NC(C)(C)C(=O)NC(C)(C)C(=O)NCCC(=O)N[C@@H](C)CN(C)C [Compound 5906, (2S)-N-[(1S)-1-[(1-{[(1S)-1-{[(1S)-1-{[1-({1-[(2-{[(2S)-1-(dimethylamino)propan-2-yl]carbamoyl}ethyl)carbamoyl]-1-methylethyl}carbamoyl)-1-methylethyl]carbamoyl}-3-methylbutyl]carbamoyl}-3-methylbutyl]carbamoyl}-1-methylethyl)carbamoyl]-3-methylbutyl]-2-{[(2S)-1-(2-phenyl-1,3-oxazole-4-carbonyl)pyrrolidin-2-yl]formamido}decanamide] (X3-P[Gly(octyl)]L[Aib]LL[Aib][Aib][βAla]-{NH((S)CH(Me)CH2NMe2)}) | – | – | – | 445 nM | –
7 | CCCCCCCC[C@H](NC(=O)[C@@H]1CCCN1C(=O)CCOCCOCCOCCOCCOCCOCCOCCOCCOCCOCCOCCOC)C(=O)N[C@@H](CC(C)C)C(=O)NC(C)(C)C(=O)N[C@@H](CC(C)C)C(=O)N[C@@H](CC(C)C)C(=O)NC(C)(C)C(=O)NC(C)(C)C(=O)NCCC(=O)N[C@@H](C)CN(C)C [Compound 6067, (2S)-N-[(1S)-1-[(1-{[(1S)-1-{[(1S)-1-{[1-({1-[(2-{[(2S)-1-(dimethylamino)propan-2-yl]carbamoyl}ethyl)carbamoyl]-1-methylethyl}carbamoyl)-1-methylethyl]carbamoyl}-3-methylbutyl]carbamoyl}-3-methylbutyl]carbamoyl}-1-methylethyl)carbamoyl]-3-methylbutyl]-2-{[(2S)-1-(2,5,8,11,14,17,20,23,26,29,32,35-dodecaoxaoctatriacontanoyl)pyrrolidin-2-yl]formamido}decanamide] ({CH3O(CH2CH2O)11CH2CH2CO}-P[Gly(octyl)]L[Aib]LL[Aib][Aib][βAla]-{NH((S)CH(Me)CH2NMe2)}) | – | – | – | 4640 nM | –
8 | CCCCCCCC[C@H](NC(=O)[C@@H]1CCCN1C(=O)c1coc(C)n1)C(=O)N[C@@H](CC(C)C)C(=O)NC(C)(C)C(=O)N[C@@H](CC(C)C)C(=O)N[C@@H](CC(C)C)C(=O)NC(C)(C)C(=O)NC(C)(C)C(=O)NCCC(=O)NC1(CN(C)C)CCC1 [Compound 6253, (2S)-N-[(1S)-1-[(1-{[(1S)-1-{[(1S)-1-({1-[(1-{[2-({1-[(dimethylamino)methyl]cyclobutyl}carbamoyl)ethyl]carbamoyl}-1-methylethyl)carbamoyl]-1-methylethyl}carbamoyl)-3-methylbutyl]carbamoyl}-3-methylbutyl]carbamoyl}-1-methylethyl)carbamoyl]-3-methylbutyl]-2-{[(2S)-1-(2-methyl-1,3-oxazole-4-carbonyl)pyrrolidin-2-yl]formamido}decanamide] ({Oxazole4CO(2-Me)}-P[Gly(octyl)]L[Aib]LL[Aib][Aib][βAla]-{NH(1-CH2NMe2-cBu)}) | < 0.9 nM | 68.4 nM | 46800 nM | – | –
9 | CCCCCCCC[C@H](NC(=O)[C@@H]1CCCN1C(=O)c1coc(C)n1)C(=O)N[C@@H](CC(C)C)C(=O)NC(C)(C)C(=O)N[C@@H](CC(C)C)C(=O)N[C@@H](CC(C)C)C(=O)NC(C)(C)C(=O)NC(C)(C)C(=O)NCCC(=O)NC1(CN(C)C)CCCC1 [Compound 6254, (2S)-N-[(1S)-1-[(1-{[(1S)-1-{[(1S)-1-({1-[(1-{[2-({1-[(dimethylamino)methyl]cyclopentyl}carbamoyl)ethyl]carbamoyl}-1-methylethyl)carbamoyl]-1methylethyl}carbamoyl)-3-methylbutyl]carbamoyl}-3-methylbutyl]carbamoyl}-1-methylethyl)carbamoyl]-3-methylbutyl]-2-{[(2S)-1-(2-methyl-1,3-oxazole-4-carbonyl)pyrrolidin-2-yl]formamido}decanamide] ({Oxazole4CO(2-Me)}-P[Gly(octyl)]L[Aib]LL[Aib][Aib][βAla]-X25) | < 0.8 nM | 34.6 nM | 13900 nM | – | –
10 | CCCCCCCC[C@H](NC(=O)[C@@H]1CCCN1C(=O)c1coc(C)n1)C(=O)N[C@@H](CC(C)C)C(=O)NC(C)(C)C(=O)N[C@@H](CC(C)C)C(=O)N[C@@H](CC(C)C)C(=O)NC(C)(C)C(=O)NC(C)(C)C(=O)NCCC(=O)N1CC2(CCN2C)C1 [Compound 6255, (2S)-2-{[(2S)-1-(2-methyl-1,3-oxazole-4-carbonyl)pyrrolidin-2-yl]formamido}-N-[(1S)-3-methyl-1-[(1-methyl-1-[(1S)-3-methyl-1-{[(1S)-3-methyl-1-{{[1-methyl-1-({1-methyl-1-[(3-{1-methyl-1,6-diazaspiro[3.3]heptan-6-yl}-3-oxopropyl)carbamoyl]ethyl}carbamoyl)ethyl]carbamoyl}butyl]carbamoyl}butyl]carbamoyl}ethyl)carbamoyl]butyl]decanamide] ({Oxazole4CO(2-Me)}-P[Gly(octyl)]L[Aib]LL[Aib][Aib][βAla]-X23) | 461 nM | 3710 nM | 4090 nM | 7170 nM | –
11 | CCCCCCCC[C@H](NC(=O)[C@@H]1CCCN1C(=O)c1coc(C)n1)C(=O)N[C@@H](CC(C)C)C(=O)NC(C)(C)C(=O)N[C@@H](CC(C)C)C(=O)N[C@@H](CC(C)C)C(=O)NC(C)(C)C(=O)NC(C)(C)C(=O)NCCC(=O)N1CC2(CN(C)C2)C1 [Compound 6256, (2S)-2-{[(2S)-1-(2-methyl-1,3-oxazole-4-carbonyl)pyrrolidin-2-yl]formamido}-N-[(1S)-3-methyl-1-[(1-methyl-1-[(1S)-3-methyl-1-{[(1S)-3-methyl-1-{{[1-methyl-1-({1-methyl-1-[(3-{6-methyl-2,6-diazaspiro[3.3]heptan-2-yl}-3-oxopropyl)carbamoyl]ethyl}carbamoyl)ethyl]carbamoyl}butyl]carbamoyl}butyl]carbamoyl}ethyl)carbamoyl]butyl]decanamide] ({Oxazole4CO(2-Me)}-P[Gly(octyl)]L[Aib]LL[Aib][Aib][βAla]-X24) | 316 nM | 4010 nM | 8670 nM | > 8060 nM | –
12 | Nc1nc(N)nc(Nc2ccc([As]3SCC(CO)S3)cc2)n1 (stereo not shown) [Melarsoprol, melarsoprol] | – | – | – | – | IC50 ([1]; read-out: T.b.rhod.): 7 nM; IC50 ([1]; reference drug, T. b. rhodesiense STIB 900, Alamar Blue, read-out: IC50): 30 ± 10 nM
13 | CCCCCCCCCCCCCCCCOP(=O)([O-])OCC[N+](C)(C)C [Miltfosine] | – | – | – | – | IC50 ([3]; Leishmania donovani, reference drug, axenic L. donovani amastigotes, resazurin assay, read-out: IC50): 0.241 µg/mL
